In the NIST ThermoML archive (doi:10.1021/je100897y):
Values joined by “and” are separate entries in the source; they are usually repeats but may differ in a detail not shown here. Equal values may be shown once.

What was measured:
[1] = excess molar enthalpy (molar enthalpy of mixing); xn = mol fraction of the nth substance listed; settings: 298.15 K, 101 kPa, Liquid, Flow calorimetry
[2] = 298.15 K; 101.33 kPa; Liquid

CCCOCCC [dipropyl ether] + C=CCCCC
[1]
Settings	excess molar enthalpy [kcal/mol]
x1 = 0.0529	0.00158
x1 = 0.1001	0.00289
x1 = 0.15	0.00394
x1 = 0.2001	0.0048
x1 = 0.25	0.00545
x1 = 0.3002	0.00595
x1 = 0.3499	0.00632
x1 = 0.4001	0.00654
x1 = 0.4501	0.00671
x1 = 0.5001	0.00669
x1 = 0.55	0.00661
x1 = 0.5998	0.00641
x1 = 0.6499	0.00609
x1 = 0.6996	0.0057
x1 = 0.75	0.00515
x1 = 0.8003	0.0045
x1 = 0.85	0.00368
x1 = 0.9	0.00271
x1 = 0.95	0.00146

C1CCOC1 [tetrahydrofuran]
Settings	mass density [kg/m3]
[2]	882.078

C=CCCCC [hex-1-ene]
Settings	mass density [kg/m3]
[2]	668.762

CCCOCCC [dipropyl ether] + C1CCOC1
[1]
Settings	excess molar enthalpy
x1 = 0.05	0.0125 kcal/mol
x1 = 0.1	0.0232 kcal/mol
x1 = 0.1501	0.0325 kcal/mol
x1 = 0.2	0.0402 kcal/mol
x1 = 0.2498	0.0468 kcal/mol
x1 = 0.2998	0.0518 kcal/mol
x1 = 0.3503	0.0556 kcal/mol
x1 = 0.3998	0.058 kcal/mol
x1 = 0.45	0.0591 kcal/mol
x1 = 0.4998	0.0594 kcal/mol and 0.0593 kcal/mol
x1 = 0.5499	0.0585 kcal/mol
x1 = 0.5999	0.0565 kcal/mol
x1 = 0.6502	0.0535 kcal/mol
x1 = 0.7003	0.0493 kcal/mol
x1 = 0.7499	0.0441 kcal/mol
x1 = 0.7999	0.0381 kcal/mol
x1 = 0.85	0.0305 kcal/mol
x1 = 0.9	0.0216 kcal/mol
x1 = 0.95	0.0115 kcal/mol

CCCOCCC [dipropyl ether]
Settings	mass density [kg/m3]
[2]	741.997

CCCOCCC [dipropyl ether] + CCCCOCCCC
[1]
Settings	excess molar enthalpy [kcal/mol]
x1 = 0.05	0.000533
x1 = 0.1	0.00102
x1 = 0.15	0.0014
x1 = 0.2001	0.00175
x1 = 0.25	0.00205
x1 = 0.3	0.00229
x1 = 0.35	0.00246
x1 = 0.3998	0.00261
x1 = 0.4497	0.00275
x1 = 0.4998	0.00283
x1 = 0.5004	0.00283
x1 = 0.55	0.00284
x1 = 0.6001	0.00281
x1 = 0.65	0.00271
x1 = 0.6999	0.00253
x1 = 0.75	0.00228
x1 = 0.8	0.00196
x1 = 0.8503	0.00159
x1 = 0.9	0.00111
x1 = 0.95	0.000612
